Measured values published in patent publication US10364323B2, “Method for producing polyether carbonate polyols” (priority 2015, dated 2019).

Experiment: physchem
Excerpt: The pKa in the context of the process according to the invention is to be understood as meaning the negative decadic logarithm of the first dissociation constant of the carboxylic acid at a temperature of 25 degrees Celsius. […] The pKa of the carboxylic acid may be measured by determining the pH at the half-equivalence point. To this end, an aqueous solution of the carboxylic acid is titrated against sodium hydroxide solution of a defined concentration and in each case the pH of the solution is measured using a calibrated combination pH electrode. […] According to the Henderson-Hasselbalch equation at the half-equivalence point the pKa corresponds to the measured pH because the acid and its corresponding base are present in equal concentration. Carboxylic acids having an insufficient solubility in water are titrated in methanolic solution (pKLy=16.7) or ethanolic solution (pKLy=19.1), wherein pKLy is defined as follows for non-aqueous media.
[formula] […] Chem., 1985, Vol. 57, No. 6, pp. 865-876.

O=C(O)C(=O)O [Oxalic acid]
pKa: 1.46

O=C(O)CCCCCC(=O)O [Pimelic acid]
pKa: 4.71
